Measured values published in patent publication US8785649B2, “Ethynylphenylamidine compound or salt thereof, method for producing same, and fungicide for agricultural and horticultural use” (priority 2010, dated 2014).

Experiments:
[1] = tested on: powdery mildew (Sphaerotheca cucurbitae); assay: Test of effect on cucumber powdery mildew, vaporization properties; assay type: in vivo; conditions: 100 ppm drug solution dropped on aluminum foil on cucumber first leaf; seven days after inoculation; 2 cm or more = vaporization effect
Experimental: A 10-mm square piece of aluminum foil was attached with a double-sided tape on the first leaf of cucumber planted in a 7.5-cm-diameter pot. […] The drug solution was added dropwise in […] using a micropipette. After air-drying the drug solution, the leaf was inoculated by spraying with a spore suspension of powdery mildew (Sphaerotheca cucurbitae). Seven days after inoculation, the diameter of a disease development inhibition circle on the cucumber first leaf was measured. The appearance of necrotic lesions on the leaf was examined in comparison with the untreated plot. There was judged to be a vaporization effect when an inhibition circle having a diameter of 2 cm or more was formed around the aluminum foil.

[2] = tested on: wheat powdery mildew (Erysiphe graminis); assay: Test of preventive effect on wheat powdery mildew; conditions: wheat seedlings
[3] = tested on: Wheat scab (Microdochium nivale); assay: Test of inhibition of growth of wheat scab mycelium; assay type: cell-based; conditions: read-out: inhibition rate (mycelium growth length)
[4] = treatment concentration 100 ppm

| Molecule | Diameter of disease development inhibition circle [1] [cm] | other results |
| --- | --- | --- |
| CCN(C)C=Nc1cc(C)c(C#CC(C)(C)C)cc1C [Compound 98] | 9.5 | – |
| CCN(C)C=Nc1cc(C)c(C#C[Si](C)(C)C)cc1C.Cl [Compound 162, N-ethyl-N-methyl-N′-[2,5-dimethyl-4-(2-trimethylsilyl-1-ethynyl)phenyl]formamidine hydrochloride] | 8.0 | – |
| CCN(C)C=Nc1ccc(C#C[Si](CC)(CC)CC)cc1C [Compound 69] | 2.75 | – |
| CCN(C)C=Nc1cc(C)c(C#CC(C)(C)O[Si](C)(C)C)cc1C [Compound 161] | 6.0 | – |
| CCN(C)C=Nc1cc(F)c(C#C[Si](C)(C)C)cc1C.Cl [Compound 176] | 7.0 | – |
| CCN(C)/C=N/c1ccc(-c2ccc(C(C)(C)C)cc2)cc1C [Reference Compound A] | 0 | Preventive value ([2]; treatment concentration 10 ppm): 10; Preventive value ([2]; treatment concentration 20 ppm): 20; Preventive value ([2]; treatment concentration 40 ppm): 70; Preventive value [2, 4]: 100 |
| CCN(C)C=Nc1cc(C)c(C#C[Si](CC)(CC)CC)cc1C [Compound 124] | 3.75 | – |
| Cc1cc(N=CN(C)C)c(C)cc1C#CC(C)(C)C [Compound 52, N,N-dimethyl-N′-[2,5-dimethyl-4-(3,3-dimethyl-1-butynyl)phenyl]formamidine] | – | inhibition at 10 ppm [3]: 100% |
| CCN(C)C=Nc1ccc(C#CC(C)(C)C)cc1C [Compound 66, N-ethyl-N-methyl-N′-[2-methyl-4-(3,3-dimethyl-1-butynyl)phenyl]formamidine] | – | inhibition at 10 ppm [3]: 100% |
| CCN(C)C=Nc1cc(C)c(C#CC[Si](C)(C)C)cc1C [Compound 127] | 2.0 | – |
| CCN(C)C=Nc1cc(C)c(C#C[Si](C)(C)C(C)(C)C)cc1C [Compound 126] | 6.5 | – |
| Cc1cc(N=CN(C)C(C)C)c(C)cc1C#C[Si](C)(C)C(C)(C)C [Compound 171] | 7.0 | – |
| CCN(C)/C=N/c1cc(C)c(-c2ccc(C(C)(C)C)cc2)cc1C [Reference Compound B] | 0 | Preventive value ([2]; treatment concentration 10 ppm): 40; Preventive value ([2]; treatment concentration 20 ppm): 70; Preventive value ([2]; treatment concentration 40 ppm): 70; Preventive value [2, 4]: 95 |
| CCN(C)C=Nc1cc(Cl)c(C#C[Si](C)(C)C)cc1C [Compound 93] | 6.0 | – |
| CCN(C)C=Nc1cc(Cl)c(C#CC(C)(C)C)cc1C [Compound 91] | 6.0 | – |
| CCN(C)C=Nc1cc(F)c(C#C[Si](C)(C)C)cc1C [Compound 158] | 3.75 | – |
| CCN(C)C=Nc1cc(Cl)c(C#CC(C)(C)C)cc1C.Cl [Compound 172] | 7.0 | – |
| Cc1cc(N=CN2CCCCC2)c(C)cc1C#C[Si](C)(C)C [Compound 147] | 2.5 | – |
| Cc1cc(N=CN(C)C)c(C)cc1C#C[Si](C)(C)C [Compound 59, N,N-dimethyl-N′-[2,5-dimethyl-4-(2-trimethylsilyl-1-ethynyl)phenyl]formamidine] | – | inhibition at 10 ppm [3]: 100% |
| N-ethyl-N-methyl-N′-[2,5-dimethyl-4-(2-trimethylsilyl-1-ethynyl)phenyl]formamidine (+)-camphorsulfonate [Compound 174] | 7.0 | – |
| CC1(C)[C@H]2CC[C@]1(CS(=O)(=O)O)C(=O)C2.CCN(C)C=Nc1cc(C)c(C#C[Si](C)(C)C)cc1C [Compound 175] | 7.0 | – |
| CCN(C)C=Nc1cc(C)c(C#CC(C)(C)C)cc1Cl [Compound 85] | 6.0 | – |
| CCN(C)C=Nc1cc(C)c(C#C[Si](C)(C)C(C)(C)C)cc1C.Cl [Compound 163] | 8.0 | – |
| CCN(C)C=Nc1cc(C)c(C#C[Si](C)(C)C)cc1C [Compound 123, N-ethyl-N-methyl-N′-[2,5-dimethyl-4-(2-trimethylsilyl-1-ethynyl)phenyl]formamidine] | 9.5 | inhibition at 10 ppm [3]: 100%; Preventive value ([2]; treatment concentration 10 ppm): 100; Preventive value ([2]; treatment concentration 20 ppm): 100; Preventive value ([2]; treatment concentration 40 ppm): 100; Preventive value [2, 4]: 100 |
